Counter-ions that a name gives are not always drawn. Like-named read-outs stand apart in the source and are kept apart here.
What was measured:
neonatal mice = assay: Sedative activity, observation of orally dosed mice; format: in vivo; conditions: 6 neonatal mice, at 1 mg/kg and at 10 mg/kg, observed for 2 hours versus control mice
Description: m-amino Clonidine was administered orally to 6 neonatal mice at 1 mg/kg and at 10 mg/kgwhichwere observed for 2 hours in comparison with control mice.

piglets = format: in vivo; conditions: groups of 2 piglets; for MEAN SCOUR SCORE ± SEM: score 0-3
[1] = 0.1 mg/kg p.o., duration of test 6 h
[2] = 0.1 mg/kg p.o., duration of test 12 h
[3] = 0.2 mg/kg p.o., duration of test 6 h

Q: `Nc1ccc(Cl)c(N=C2NCCN2)c1Cl` [Example 3, 2-(3-amino-2,6-dichlorophenylimino) imidazolidine] was tested. Which sedation (neonatal mice) did it give?
A: The sedation was “marked sedation”.

Q: Which “o/o INHIBITION OF SCOUR” value (piglets; [1]) does the source give for `Clc1cc(NCc2ccccc2)cc(Cl)c1N=C1NCCN1` [Example 4, 2-(4-Eenzylamino-2,6-dichlorophenylimino)imidazolidine_ hydrochloride] here?
A: Its value is 15 o/o.

Q: And the “MEAN SCOUR SCORE ± SEM” value (piglets; [1])?
A: Its value is 2.3 ± 0.5.

Q: And the “o/o INHIBITION OF SCOUR” value (piglets; [2])?
A: Its value is 10 o/o.

Q: What about the “MEAN SCOUR SCORE ± SEM” value (piglets; [2]) of the same compound?
A: Its value is 1.9 ± 0.2.

Q: What about the “o/o INHIBITION OF SCOUR” value (piglets; [3]) of the same compound?
A: The value was 41 o/o.

Q: And the “MEAN SCOUR SCORE ± SEM” value (piglets; [3])?
A: Its value is 1.6 ± 0.1.

Q: What about the “MEAN SCOUR SCORE ± SEM” value (piglets; 0.2 mg/kg p.o., duration of test 12 h) of the same compound?
A: Its value is 1.2 ± 0.2.

Q: And the “o/o INHIBITION OF SCOUR” value (piglets; 0.2 mg/kg p.o., duration of test 12 h, P 0.05)?
A: The value was 43 o/o.

Q: What about the “MEAN SCOUR SCORE ± SEM” value (piglets; 1 mg/kg p.o., duration of test 6 h) of the same compound?
A: Its value is 0.4 ± 0.4.

Q: What about the “o/o INHIBITION OF SCOUR” value (piglets; 1 mg/kg p.o., duration of test 6 h, P 0.01) of the same compound?
A: Its value is 85 o/o.

Q: And the “MEAN SCOUR SCORE ± SEM” value (piglets; 1 mg/kg p.o., duration of test 12 h)?
A: The value was 1.1 ± 0.2.

Q: What about the “o/o INHIBITION OF SCOUR” value (piglets; 1 mg/kg p.o., duration of test 12 h, P 0.05) of the same compound?
A: Its value is 48 o/o.

Source: EP0070084A2, “Imidazoline derivatives” (BEECHAM GROUP PLC, priority 1981, dated 1983)
